From patent US20250277012A1 (Protagonist Therapeutics, Inc., priority 2021, published 2025)
Like-named read-outs stand apart in the source and are kept apart here. Starred links: 1 amine or outer side, 2 acyl side, 3 side chain; linkers in the order of their positions; H or OH if unused. Positions of bridges follow the written chain, without caps; N, C: chain ends. Non-standard residues stand in square brackets, D forms with d. Residues, ends and D or L forms follow the SMILES beside them. Groups on a side chain read outwards from the residue. *: point of attachment. X1 = C[N+](C)(CCNC(=O)CCCCCCCCCCCCCCCCC(=O)O)CC(=O)*; C18 diacid = O=C(O)CCCCCCCCCCCCCCCCC(=O)*; Dip = N[C@H](C(=O)O)C(c1ccccc1)c1ccccc1; γGlu = O=C(O)[C@H](CCC(=O)[*:2])N[*:1]; dNMeY = CN[C@H](Cc1ccc(O)cc1)C(=O)O; Palmitoyl = CCCCCCCCCCCCCCCC(=O)*; β3hF = N[C@H](CC(=O)O)Cc1ccccc1; X3 = CCCCCCCCCCCCCCCC(=O)NCCC*; NMeK = CN[C@@H](CCCCN)C(=O)O; Isovaleryl = CC(C)CC(=O)*; hCys = N[C@@H](CCS)C(=O)O; Dap = NC[C@H](N)C(=O)O; AEEA = NCCOCCOCC(=O)O; Ahx = NCCCCCC(=O)O

Experiments:
ferroportin [1] = molecular target: T1, ferroportin (Homo sapiens, UniProt Q9NP59); assay: T47D cell-based ferroportin internalization assay in presence of mouse serum albumin (MSA); parameters: a human breast carcinoma adherent cell line which endogenously expresses ferroportin; host or cells: T47D
T1 sequence (Q9NP59 1-571): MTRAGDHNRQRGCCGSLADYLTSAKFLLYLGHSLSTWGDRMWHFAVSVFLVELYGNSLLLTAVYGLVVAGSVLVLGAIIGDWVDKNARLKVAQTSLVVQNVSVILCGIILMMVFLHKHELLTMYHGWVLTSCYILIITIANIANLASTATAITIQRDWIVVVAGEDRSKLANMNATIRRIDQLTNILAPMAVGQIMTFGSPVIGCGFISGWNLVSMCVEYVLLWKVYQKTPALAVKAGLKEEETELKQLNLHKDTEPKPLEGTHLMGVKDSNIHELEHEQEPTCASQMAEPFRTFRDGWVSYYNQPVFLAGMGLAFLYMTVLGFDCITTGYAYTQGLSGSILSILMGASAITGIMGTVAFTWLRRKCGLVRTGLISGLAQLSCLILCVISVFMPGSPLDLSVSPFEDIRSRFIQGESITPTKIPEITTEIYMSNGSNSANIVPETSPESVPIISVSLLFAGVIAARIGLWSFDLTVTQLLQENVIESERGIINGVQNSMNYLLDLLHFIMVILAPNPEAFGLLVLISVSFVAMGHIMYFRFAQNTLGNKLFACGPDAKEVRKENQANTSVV
Procedure, shortened: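 Peptide potency for inducing ferroportin internalization was measured in T47D cells in the presence of serum albumin. Cells grown in RPMI with fetal bovine serum were seeded in 96-well plates at 80-100 k cells per well in 100 ul and rested overnight. Dilution series of test peptides were preincubated 30 min at room temperature, then added to the cells after the medium was aspirated.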

ferroportin [2] = molecular target: T1, ferroportin; assay: FPN activity assay: ferroportin-GFP internalization/degradation in HEK293 cells; format: cell-based; parameters: expressed in transfected cells; details: read-out: FPN IC50
Procedure: Following internalization, the ferroporin protein is degraded.
A retro inverse peptide is a peptide with a reversed sequence in all D amino acids. An example is that Hy-Glu-Thr-His-NH2 becomes Hy-DHis-DThr-DGlu-NH2. The EC50 of these reference compounds for ferroportin internalization/degradation was determined according to the FPN activity assay described above. These peptides served as control standards.

[3] = T47D internalization assay in presence of mouse serum albumin (MSA), Table 6E
[4] = ferroportin-GFP internalization/degradation, HEK293 cells, Table 6E
[5] = T47D cells, 0.5% mouse serum albumin, 1 hr incubation
[6] = ferroportin-GFP HEK293 cells, at least 18 hours
[7] = Table 6E, T47D internalization assay with MSA
[8] = Table 6E, ferroportin-GFP internalization/degradation, at least 18 hours incubation

| Compound | IC50 (ferroportin [1]; [3]) [µM] | DC50 (ferroportin [2]; [4]) [µM] | IC50 (ferroportin [1]; [5]) [µM] | DC50 (ferroportin [2]; [6]) [µM] | IC50 (ferroportin [1]; [7]) [µM] | DC50 (ferroportin [2]; [8]) [µM] |
| --- | --- | --- | --- | --- | --- | --- |
| CCCCCCCCCCCCCCCC(=O)NCCCCCC(=O)NCCCC[C@@H](C(=O)N[C@H](C(=O)N[C@H](CCCCN)C(N)=O)C(c1ccccc1)c1ccccc1)N(C)C(=O)[C@@H]1CSSC[C@H](NC(=O)[C@@H]2CCCN2C(=O)[C@@H](NC(=O)[C@H](Cc2cnc[nH]2)NC(=O)[C@@H](NC(=O)[C@H](CCC(=O)O)NC(=O)CC(C)C)[C@@H](C)O)C(c2ccccc2)c2ccccc2)C(=O)N1 [compound 196] (Isovaleryl-ETH[Dip]PCC[NMeK]([Ahx-Palmitoyl])[Dip][dK]-NH2; disulfide 6-7) | – | – | – | – | 0.001 to 0.01 | 0.001 to 0.01 |
| CCCCCCCCCCCCCCCC(=O)NCCCCCC(=O)NCCCC[C@H](NC(=O)C[C@H](Cc1ccccc1)NC(=O)[C@@H]1CSSC[C@H](NC(=O)CC(C)C)C(=O)N[C@@H]([C@@H](C)O)C(=O)N[C@@H](Cc2c[nH]cn2)C(=O)N[C@@H](C(c2ccccc2)c2ccccc2)C(=O)N2CCC[C@H]2C(=O)N[C@@H](C)C(=O)N[C@@H]([C@@H](C)CC)C(=O)N1)C(=O)N[C@H](CCCCN)C(N)=O [Compd 43] (Isovaleryl-CTH[Dip]PAIC[β3hF]K([Ahx-Palmitoyl])[dK]-NH2; disulfide 1-8) | – | – | > 0.5 | 0.001 to 0.01 | – | – |
| CCCCCCCCCCCCCCCC(=O)NCCCSCC[C@H](NC(=O)[C@@H]1CSSC[C@H](NC(=O)[C@@H]2CCCN2C(=O)[C@@H](NC(=O)[C@H](Cc2cnc[nH]2)NC(=O)[C@@H](NC(=O)[C@H](CCC(=O)O)NC(=O)CC(C)C)[C@@H](C)O)C(c2ccccc2)c2ccccc2)C(=O)N1)C(=O)N[C@H](C(=O)N[C@H](CCCCN)C(N)=O)C(c1ccccc1)c1ccccc1 [compound 162] (Isovaleryl-ETH[Dip]PCC[hCys](X3)[Dip][dK]-NH2; disulfide 6-7) | – | – | – | – | 0.001 to 0.01 | 0.01 to 0.1 |
| COC(=O)CC[C@H](NC(=O)CC(C)C)C(=O)N[C@H](C(=O)N[C@@H](Cc1c[nH]cn1)C(=O)N[C@H](C(=O)N1CCC[C@H]1C(=O)N[C@H]1CSSC[C@@H](C(=O)N(C)[C@@H](CCCCNC(=O)CCCCCNC(=O)C[N+](C)(C)CCNC(=O)CCCCCCCCCCCCCCCCC(=O)O)C(=O)N[C@H](C(=O)N[C@H](CCCCN)C(N)=O)C(c2ccccc2)c2ccccc2)NC1=O)C(c1ccccc1)c1ccccc1)[C@@H](C)OC [compound 147] (Isovaleryl-E(OMe)T(Me)H[Dip]PCC[NMeK]([Ahx-X1])[Dip][dK]-NH2; disulfide 6-7) | – | – | – | – | 0.1 to 0.5 | 0.01 to 0.1 |
| COC(=O)CCC(CCCC(C)C)C(=O)N[C@H](C(=O)N[C@@H](Cc1c[nH]cn1)C(=O)N[C@H](C(=O)N1CCC[C@H]1C(=O)N[C@H]1CSSC[C@@H](C(=O)N(C)[C@@H](CCCCNC(=O)CCCCCNC(=O)C[N+](C)(C)CCNC(=O)CCCCCCCCCCCCCCCCC(=O)O)C(=O)N[C@H](C(=O)N[C@H](CCCCN)C(N)=O)C(c2ccccc2)c2ccccc2)NC1=O)C(c1ccccc1)c1ccccc1)[C@@H](C)O (single isomer, unassigned) [compound 137] | – | – | – | – | 0.01 to 0.1 | 0.01 to 0.1 |

Second part, the molecule after the results:

| IC50 (ferroportin [1]; [3]) [µM] | DC50 (ferroportin [2]; [4]) [µM] | IC50 (ferroportin [1]; [5]) [µM] | DC50 (ferroportin [2]; [6]) [µM] | IC50 (ferroportin [1]; [7]) [µM] | DC50 (ferroportin [2]; [8]) [µM] | Compound |
| --- | --- | --- | --- | --- | --- | --- |
| 0.001 to 0.01 | 0.01 to 0.1 | – | – | – | – | CCCCCCCCCCCCCCCC(=O)NCCCCCC(=O)NCCCC[C@@H](C(=O)N[C@H](CC(=O)N[C@H](CCCCN)C(N)=O)Cc1ccccc1)N(C)C(=O)[C@@H]1CSSC[C@H](NC(=O)[C@@H]2CCCN2C(=O)[C@@H](NC(=O)[C@H](Cc2cnc[nH]2)NC(=O)[C@@H](NC(=O)[C@H](CCC(=O)O)NC(=O)CC(C)C)[C@@H](C)O)C(c2ccccc2)c2ccccc2)C(=O)N1 [compound 308] (Isovaleryl-ETH[Dip]PCC[NMeK]([Ahx-Palmitoyl])[β3hF][dK]-NH2; disulfide 6-7) |
| – | – | 0.001 to 0.01 | 0.01 to 0.1 | – | – | CCCCCCCCCCCCCCCC(=O)NCCCCCC(=O)NCCCC[C@H](NC(=O)[C@@H]1CSSC[C@H](NC(=O)[C@@H]2CCCN2C(=O)[C@@H](NC(=O)[C@H](Cc2c[nH]cn2)NC(=O)[C@@H](NC(=O)[C@H](CCC(=O)OC)NC(=O)CC(C)C)[C@@H](C)O)C(c2ccccc2)c2ccccc2)C(=O)N1)C(=O)N[C@H](CC(=O)N[C@H](CCCCN)C(N)=O)Cc1ccccc1 [Compd 40] (Isovaleryl-E(OMe)TH[Dip]PCCK([Ahx-Palmitoyl])[β3hF][dK]-NH2; disulfide 6-7) |
| – | – | 0.01 to 0.1 | 0.01 to 0.1 | – | – | COC(=O)CC[C@H](NC(=O)CC(C)C)C(=O)N[C@H](C(=O)N[C@@H](Cc1c[nH]cn1)C(=O)N[C@H](C(=O)N1CCC[C@H]1C(=O)N[C@H]1CSSC[C@@H](C(=O)N[C@@H](CCCCNC(=O)COCCOCCNC(=O)COCCOCCNC(=O)[C@H](CN)NC(=O)CCCCCCCCCCCCCCCCC(=O)O)C(=O)N[C@H](CC(=O)N[C@H](CCCCN)C(N)=O)Cc2ccccc2)NC1=O)C(c1ccccc1)c1ccccc1)[C@@H](C)O [Compd ID 42, Isovaleric Acid-[Glu_OMe]-T-H-[Dpa]-P-[Cys]-[Cys]-[Lys(1PEG2_1PEG2_Dap_C18_Diacid)]-[bhPhe]-[(D)Lys]-NH2] (Isovaleryl-E(OMe)TH[Dip]PCCK([AEEA-AEEA-Dap-C18 diacid])[β3hF][dK]-NH2; disulfide 6-7) |
| 0.01 to 0.1 | 0.001 to 0.01 | – | – | – | – | COC(=O)CC[C@H](NC(=O)CC(C)C)C(=O)N[C@H](C(=O)N[C@@H](Cc1c[nH]cn1)C(=O)N[C@H](C(=O)N1CCC[C@H]1C(=O)N[C@H]1CSSC[C@@H](C(=O)N(C)[C@@H](CCCCNC(=O)COCCOCCNC(=O)COCCOCCNC(=O)[C@H](CN)NC(=O)CCCCCCCCCCCCCCCCC(=O)O)C(=O)N[C@H](CC(N)=O)Cc2ccccc2)NC1=O)C(c1ccccc1)c1ccccc1)[C@@H](C)O [compound 256] (Isovaleryl-E(OMe)TH[Dip]PCC[NMeK]([AEEA-AEEA-Dap-C18 diacid])[β3hF]-NH2; disulfide 6-7) |
| – | – | 0.1 to 0.5 | 0.01 to 0.1 | – | – | CC[C@H](C)[C@@H]1NC(=O)[C@@H](NC(=O)[C@@H]2CCCN2C(=O)[C@@H](NC(=O)[C@H](Cc2c[nH]cn2)NC(=O)[C@@H](NC(=O)[C@H](CCC(=O)O)NC(=O)CC(C)C)[C@@H](C)O)C(c2ccccc2)c2ccccc2)CSSC[C@@H](C(N)=O)NC(=O)C[C@H](Cc2ccccc2)NC(=O)[C@H](CCCCNC(=O)COCCOCCNC(=O)COCCOCCNC(=O)CC[C@H](NC(=O)CCCCCCCCCCCCCCCCC(=O)O)C(=O)O)NC1=O [Compd 32] (Isovaleryl-ETH[Dip]PCIK([AEEA-AEEA-γGlu-C18 diacid])[β3hF]C-NH2; disulfide 6-10) |
| 0.01 to 0.1 | 0.01 to 0.1 | – | – | – | – | CC(C)CC(=O)N[C@@H](CCC(=O)O)C(=O)N[C@H](C(=O)N[C@@H](Cc1cnc[nH]1)C(=O)N[C@H](C(=O)N1CCC[C@H]1C(=O)N[C@H]1CSSC[C@@H](C(=O)N(C)[C@@H](CCCCNC(=O)COCCOCCNC(=O)COCCOCCNC(=O)[C@H](CN)NC(=O)CCCCCCCCCCCCCCCCC(=O)O)C(=O)N[C@H](C(=O)N(C)[C@@H](CCCCN)C(N)=O)C(c2ccccc2)c2ccccc2)NC1=O)C(c1ccccc1)c1ccccc1)[C@@H](C)O [compound 275] (Isovaleryl-ETH[Dip]PCC[NMeK]([AEEA-AEEA-Dap-C18 diacid])[Dip][NMeK]-NH2; disulfide 6-7) |
| – | – | 0.01 to 0.1 | 0.01 to 0.1 | – | – | CC(C)CC(=O)N[C@@H](CCC(=O)O)C(=O)N[C@H](C(=O)N[C@@H](Cc1c[nH]cn1)C(=O)N[C@H](C(=O)N1CCC[C@H]1C(=O)N[C@H]1CSSC[C@@H](C(=O)N[C@@H](CCCCNC(=O)COCCOCCNC(=O)COCCOCCNC(=O)CCCCCNC(=O)CCCCCCCCCCCCCCCCC(=O)O)C(=O)N[C@H](CC(=O)N[C@H](CCCCN)C(N)=O)Cc2ccccc2)NC1=O)C(c1ccccc1)c1ccccc1)[C@@H](C)O [Compd 22] (Isovaleryl-ETH[Dip]PCCK([AEEA-AEEA-Ahx-C18 diacid])[β3hF][dK]-NH2; disulfide 6-7) |
| 0.01 to 0.1 | 0.01 to 0.1 | – | – | – | – | CC(C)CC(=O)N[C@@H](CCC(=O)O)C(=O)N[C@H](C(=O)N[C@@H](Cc1c[nH]cn1)C(=O)N[C@H](C(=O)N1CCC[C@H]1C(=O)N[C@H]1CSSC[C@@H](C(=O)N(C)[C@@H](CCCCNC(=O)COCCOCCNC(=O)COCCOCCNC(=O)[C@H](CN)NC(=O)CCCCCCCCCCCCCCCCC(=O)O)C(=O)N[C@H](CC(=O)N[C@H](CCCCN)C(=O)N(C)[C@H](Cc2ccc(O)cc2)C(N)=O)Cc2ccccc2)NC1=O)C(c1ccccc1)c1ccccc1)[C@@H](C)O [compound 257] (Isovaleryl-ETH[Dip]PCC[NMeK]([AEEA-AEEA-Dap-C18 diacid])[β3hF][dK][dNMeY]-NH2; disulfide 6-7) |
